B1: B-linker Box: HMGB1 B Box with N- and C-terminal linker (80-179; 80 to 176 in b258), 97 amino acid (protein, UniProt P09429 80-179, looked up, fragment)
chain: PPKGETKKKFKDPNAPKRPPSAFFLFCSEYRPKIKGEHPGLSIGDVAKKLGEMWNNTAADDKQPYEKKAAKLKEKYEKDIAAYRAKGKPDAAKKGVVKAE

Columns and labels:
S. aureus biofilm = test: in vitro disruption of established biofilms, CLSM and COMSTAT; format: cell-based; conditions: 800 nM rHMGB1 used (FIG. 5A)
Method: (§1) FIGS. 5A-5E: Anti-biofilm effect of HMGB1 variants on high priority bacterial pathogens. Indicated HMGB1 variants or antibodies against DNABII proteins (α-1HFEc 1gG, 1 μM) were added at 24 h to the respective preformed bacterial biofilms, in vitro. After 16 h of Incubation, biofilms were stained with LIVE/DEAD®, then visualized via confocal laser scanning microscopy. Images were analyzed by COMSTAT to calculate average thickness and comparison to control was plotted. (FIG. 5A) Full-length HMGB1 isoforms (200 nM unless otherwise indicated) added to UPEC, B. cenocepacia, NTHI, or ESKAPE pathogens. 800 nM rHMGB1 and 200 nM mHMGB1 were added for S. aureus (ESKAPE). […] Statistical significance compared to control was assessed with unpaired t-tests, *P<0.05. […] Images were analyzed by COMSTAT to calculate average thickness and total biomass. […]
(§2) HMGB1 disrupts pathogenic biofilms: To test the effect of HMGB1 on bacterial biofilms (FIG. 5), Applicant cloned (IMPACT®, NEB Ipswich, MA), expressed (in E. coli), and purified (heparin sepharose chromatography to >95% purity) tagless human recombinant HMGB1 (rHMGB1) and an engineered C45 S variant (mHMGB1) that mimics the reduced form of HMGB1. rHMGB1 readily forms an intramolecular disulfide bond between C23 and C45 that contributes to pro-inflammatory activity whereas mHMGB1 cannot. […]

E. faecium biofilm = test: as above; format: cell-based; conditions: 800 nM rHMGB1, incubated 1 h (FIG. 5A)
Method: as §1, §2

[1] = test system: established biofilms formed by high priority human pathogens; test: in vitro disruption of established biofilms of high priority pathogens (panel); format: cell-based, UPEC, B. cenocepacia, NTHI, ESKAPE pathogens; conditions: single dose 200 nM, biofilms formed 24 h, 16 h exposure
Method: as §1, §2

[2] = test system: biofilms present in CF sputum; test: disruption of CF sputum (optical density of surrounding media); conditions: CF sputum suspensions in PBS, 37° C.; compared with Pulmozyme and anti-DNABII
Method: FIGS. 10A-10B: HMGB1 In specimens from biofilm-associated diseases. (FIG. 10A) Sections of OCT-embedded mucosal biomass from an NTHI-infected chinchilla middle ear were co-labeled for HMGB1 and DNABII protein for immunofluorescence microscopy. Double stranded eDNA was labeled with DAPI (white). (FIG. 10B) CF sputum incubated with antibiofilm treatments (PBS, 1:10 rabbit a-1HFEc, serum, 100 U/ml Pulmozyme® (DNase), 1 mM rHMGB1) at 37° C. for […] and optical density of surrounding media was measured at 0 hour and 2 hour.
HMGB1 disrupts biofilms present in clinical specimens: Biofilms at chronic disease sites (e.g. CF lung), consist of multiple species and by nature are difficult to eradicate. It has been shown that anti-DNABII antibodies to disrupt biofilms present in CF sputum.

B. cenocepacia biofilm = format: cell-based, Burkholderia cenocepacia; conditions: 200 nM added at 24 h, 16 h exposure
Method: Indicated HMGB1 variants or antibodies against DNABII proteins (α-1HFEc 1gG, 1 μM) were added at 24 h to the respective preformed bacterial biofilms, in vitro. After 16 h of Incubation, biofilms were stained with LIVE/DEAD®, then visualized via confocal laser scanning microscopy. Images were analyzed by COMSTAT to calculate average thickness and comparison to control was plotted. (FIG. 5A) Full-length HMGB1 isoforms (200 nM unless otherwise indicated) added to UPEC, B. cenocepacia, NTHI, or ESKAPE pathogens. 800 nM rHMGB1 and 200 nM mHMGB1 were added for S. aureus (ESKAPE). 800 nM rHMGB1, 800 nM mHMGB1, or 3.3 μM of α-1HFEc 1gG were added for E. faecium (ESKAPE) and were incubated for 1 h as opposed to 16 h to avoid potential degradation by E. faecium proteases. […] (FIG. 5C) Individual domains of HMGB1 (200 nM) were tested for anti-biofilm activity as above (dotted line indicates control values). Bars represent the SEM. Statistical significance compared to control was assessed with unpaired t-tests, *P<0.05. […] After 16 h of incubation, biofilms were stained with LIVE/DEAD®, then visualized via confocal laser scanning microscopy. Images were analyzed by COMSTAT to calculate average thickness and total biomass. Error bars represent the SEM. ***P<0.0001; ns=not significant.
These HMGB1 isoforms were evaluated for ability to disrupt established biofilms (formed for 24 h prior to addition).

Molecule	concentration needed to disrupt S. aureus biofilm (S. aureus biofilm)	concentration needed to disrupt E. faecium biofilm (E. faecium biofilm)	disruption of established biofilms (average thickness and biomass) of high priority species [1]	disruption of established biofilms (average thickness and biomass) of high priority species ([1]; listed as Full length recombinant HMGB1)	disruption of CF sputum [2]	disruption of established Bc biofilms (B. cenocepacia biofilm)
rHMGB1: tagless human recombinant full length HMGB1 (1-215) expressed in E. coli	required a higher (albeit non-bactericidal) concentration	required a higher (albeit non-bactericidal) concentration	significant reduction	significantly disrupt	can disrupt biofilms present in CF sputum	–
B1	–	–	–	–	disrupted sputum effectively	retained full anti-biofilm activity
